Assay results as given in patent publication US10633379B2, “Bromodomain inhibitors” (AbbVie Inc., priority 2016, dated 2020).

Experiments:
BRD4 (BDII_E352-M457) = BRD4 (BDII_E352-M457) (Homo sapiens (Human), UniProt O60885); assay: TR-FRET bromodomain binding assay, BRD4 BDII; conditions: mean Ki, calculated from IC50, probe Kd and probe concentration
Description: (§1) A time-resolved fluorescence resonance energy transfer (TR-FRET) assay was used to determine the affinities of compounds of the Examples listed in Table 1 for each bromodomain of BRD4. His-tagged first (BDI: amino acids K57-E168) and second (BDII: amino acids E352-M457) bromodomains of BRD4 were expressed and purified. An Alexa647-labeled BET-inhibitor was used as the fluorescent probe in the assay.
(§2) Compound dilution series were prepared in DMSO via an approximately 3-fold serial dilution. Compound dilutions were added directly into white, low-volume assay plates (Perkin Elmer Proxiplate 384 Plus#6008280) using a Labcyte Echo in conjunction with Labcyte Access and Thermo Multidrop CombinL robotics. Compounds were then suspended in eight microliters (μL) of assay buffer (20 mM Sodium Phosphate, pH 6.0, 50 mM NaCl, 1 mM Ethylenediaminetetraacetic acid disodium salt dihydrate, 0.01% Triton X-100, 1 mM DL-Dithiothreitol) containing His-tagged bromodomain, Europium-conjugated anti-His antibody (Invitrogen PV5596) and Alexa-647-conjugated probe.
(§3) The final concentration of 1× assay mixture contained 2% DMSO, 12 nM His tagged BRD4 (BDI_K57-E168) and 100 nM probe or 4 nM His tagged BRD4 (BDII_E352-M457) and 30 nM probe, and 1 nM Europium-conjugated anti-His-tag antibody, and compound concentrations in the range of: 49.02 μM-0.61 nM or 0.98 μM-0.15 nM.
(§4) After a one-hour equilibration at room temperature, TR-FRET ratios were determined using an Envision multilabel plate reader (Ex 340, Em 495/520).
(§5) TR-FRET data were normalized to the means of 24 no-compound controls (“high”) and 8 controls containing 1 μM un-labeled probe (“low”). Percent inhibition was plotted as a function of compound concentration and the data were fit with the 4 parameter logistic equation to obtain IC50s. Inhibition constants (Ki) were calculated from the IC50s, probe Kd and probe concentration.

BRD4 (BDI_K57-E168) = BRD4 (BDI_K57-E168) (Homo sapiens (Human), UniProt O60885); assay: TR-FRET bromodomain binding assay, BRD4 BDI; conditions: mean Ki, calculated from IC50, probe Kd and probe concentration
Description: as §1, §2, §3, §4, §5

SMILES	Ki (BRD4 (BDII_E352-M457))	Ki (BRD4 (BDI_K57-E168))
CCNC(=O)c1cc2c(-c3cc(C(C)(O)C(C)CC)cnc3Oc3c(C)cccc3C)cn(C)c(=O)c2[nH]1 (stereo not drawn) [Example 20, 4-[2-(2,6-dimethylphenoxy)-5-(2-hydroxy-3-methylpentan-2-yl)pyridin-3-yl]-N-ethyl-6-methyl-7-oxo-6,7-dihydro-1H-pyrrolo[2,3-c]pyridine-2-carboxamide]	3.1 nM	363 nM
CCNC(=O)c1cc2c(-c3cc(C(O)(c4ccc(F)cc4)C4CC4)cnc3Oc3c(C)cccc3C)cn(C)c(=O)c2[nH]1 (stereo not drawn) [Example 23, 4-{5-[cyclopropyl (4-fluorophenyl)hydroxymethyl]-2-(2,6-dimethylphenoxy)pyridin-3-yl}-N-ethyl-6-methyl-7-oxo-6,7-dihydro-1H-pyrrolo[2,3-c]pyridine-2-carboxamide]	3.2 nM	701 nM
CCNC(=O)c1cc2c(-c3cc(C(O)(C4CC4)C4CC4)cnc3Oc3c(C)cccc3C)cn(C)c(=O)c2[nH]1 [Example 25, 4-{5-[dicyclopropyl(hydroxy)methyl]-2-(2,6-dimethylphenoxy)pyridin-3-yl}-N-ethyl-6-methyl-7-oxo-6,7-dihydro-1H-pyrrolo[2,3-c]pyridine-2-carboxamide]	3 nM	171 nM
CCNC(=O)c1cc2c(-c3cc(C(O)(C(C)C)C4CC4)cnc3Oc3c(C)cccc3C)cn(C)c(=O)c2[nH]1 (stereo not drawn) [Example 26, 4-[5-(1-cyclopropyl-1-hydroxy-2-methylpropyl)-2-(2,6-dimethylphenoxy)pyridin-3-yl]-N-ethyl-6-methyl-7-oxo-6,7-dihydro-1H-pyrrolo[2,3-c]pyridine-2-carboxamide]	1.5 nM	15 nM
CCNC(=O)c1cc2c(-c3cc(C(C)(C)O)ccc3Oc3c(C)cccc3C(F)(F)F)cn(C)c(=O)c2[nH]1 [Example 28, N-ethyl-4-{5-(2-hydroxypropan-2-yl)-2-[2-methyl-6-(trifluoromethyl)phenoxy]phenyl}-6-methyl-7-oxo-6,7-dihydro-1H-pyrrolo[2,3-c]pyridine-2-carboxamide]	5.4 nM	1180 nM
CCNC(=O)c1cc2c(-c3cc(C(C)(C)O)cnc3Oc3c(C)cccc3Cl)cn(C)c(=O)c2[nH]1 [Example 29, 4-[2-(2-chloro-6-methylphenoxy)-5-(2-hydroxypropan-2-yl)pyridin-3-yl]-N-ethyl-6-methyl-7-oxo-6,7-dihydro-1H-pyrrolo[2,3-c]pyridine-2-carboxamide]	1.3 nM	594 nM
CCNC(=O)c1cc2c(-c3cc(C(C)(C)O)ccc3Oc3c(C)cccc3Cl)cn(C)c(=O)c2[nH]1 [Example 30, 4-[2-(2-chloro-6-methylphenoxy)-5-(2-hydroxypropan-2-yl)phenyl]-N-ethyl-6-methyl-7-oxo-6,7-dihydro-1H-pyrrolo[2,3-c]pyridine-2-carboxamide]	1.9 nM	279 nM
Cc1cccc(C)c1Oc1ncc(C(C)(C)O)cc1-c1cn(C)c(=O)c2[nH]c(C(=O)NC3(C)CC3(F)F)cc12 (stereo not drawn) [Example 34, N-(2,2-difluoro-1-methylcyclopropyl)-4-[2-(2,6-dimethylphenoxy)-5-(2-hydroxypropan-2-yl)pyridin-3-yl]-6-methyl-7-oxo-6,7-dihydro-1H-pyrrolo[2,3-c]pyridine-2-carboxamide]	5.1 nM	729 nM
Cc1cc(F)cc(C)c1Oc1ccc(C(C)(C)O)cc1-c1cn(C)c(=O)c2[nH]c(C(=O)NC(C)(C)C)cc12 [Example 36, N-tert-butyl-4-[2-(4-fluoro-2,6-dimethylphenoxy)-5-(2-hydroxypropan-2-yl)phenyl]-6-methyl-7-oxo-6,7-dihydro-1H-pyrrolo[2,3-c]pyridine-2-carboxamide]	3.4 nM	579 nM
Cc1cccc(Cl)c1Oc1ncc(C(C)(C)O)cc1-c1cn(C)c(=O)c2[nH]c(C(=O)NC(C)(C)C)cc12 [Example 37, N-tert-butyl-4-[2-(2-chloro-6-methylphenoxy)-5-(2-hydroxypropan-2-yl)pyridin-3-yl]-6-methyl-7-oxo-6,7-dihydro-1H-pyrrolo[2,3-c]pyridine-2-carboxamide]	3.7 nM	195 nM
Cc1cccc(Cl)c1Oc1ncc(C(C)(C)O)cc1-c1cn(C)c(=O)c2[nH]c(C(=O)NC(C)(C)C(F)(F)F)cc12 [Example 38, 4-[2-(2-chloro-6-methylphenoxy)-5-(2-hydroxypropan-2-yl)pyridin-3-yl]-6-methyl-7-oxo-N-(1,1,1-trifluoro-2-methylpropan-2-yl)-6,7-dihydro-1H-pyrrolo[2,3-c]pyridine-2-carboxamide]	5.7 nM	241 nM
Cc1cccc(Cl)c1Oc1ncc(C(C)(C)O)cc1-c1cn(C)c(=O)c2[nH]c(C(=O)NC3(C)CC3(F)F)cc12 (stereo not drawn) [Example 39, 4-[2-(2-chloro-6-methylphenoxy)-5-(2-hydroxypropan-2-yl)pyridin-3-yl]-N-(2,2-difluoro-1-methylcyclopropyl)-6-methyl-7-oxo-6,7-dihydro-1H-pyrrolo[2,3-c]pyridine-2-carboxamide]	11.3 nM	640 nM
CCNC(=O)c1cc2c(-c3cc(C(C)(C)O)ccc3Oc3c(C)cc(SC)cc3C)cn(C)c(=O)c2[nH]1 [Example 40, 4-{2-[2,6-dimethyl-4-(methylsulfanyl)phenoxy]-5-(2-hydroxypropan-2-yl)phenyl}-N-ethyl-6-methyl-7-oxo-6,7-dihydro-1H-pyrrolo[2,3-c]pyridine-2-carboxamide]	2.1 nM	773 nM
Cc1cccc(Cl)c1Oc1ccc(C(C)(C)O)cc1-c1cn(C)c(=O)c2[nH]c(C(=O)NC3(C)CC3(F)F)cc12 (stereo not drawn) [Example 42, 4-[2-(2-chloro-6-methylphenoxy)-5-(2-hydroxypropan-2-yl)phenyl]-N-(2,2-difluoro-1-methylcyclopropyl)-6-methyl-7-oxo-6,7-dihydro-1H-pyrrolo[2,3-c]pyridine-2-carboxamide]	5.7 nM	704 nM

More lines, in order of falling Ki (BRD4 (BDII_E352-M457)), values ahead:

Ki (BRD4 (BDII_E352-M457))	Ki (BRD4 (BDI_K57-E168))	SMILES
10.5 nM	2500 nM	CCNC(=O)c1cc2c(-c3cc(C(C)(O)Cc4ccc(F)cc4)cnc3Oc3c(C)cccc3C)cn(C)c(=O)c2[nH]1 (stereo not drawn) [Example 22, 4-{2-(2,6-dimethylphenoxy)-5-[1-(4-fluorophenyl)-2-hydroxypropan-2-yl]pyridin-3-yl}-N-ethyl-6-methyl-7-oxo-6,7-dihydro-1H-pyrrolo[2,3-c]pyridine-2-carboxamide]
6.4 nM	921 nM	Cn1cc(-c2cc(C(C)(C)O)ccc2-c2ccc(F)cc2F)c2cc(C(=O)NC(C)(C)C)[nH]c2c1=O [Example 33, N-tert-butyl-4-[2′,4′-difluoro-4-(2-hydroxypropan-2-yl)[1,1′-biphenyl]-2-yl]-6-methyl-7-oxo-6,7-dihydro-1H-pyrrolo[2,3-c]pyridine-2-carboxamide]
4.8 nM	759 nM	Cc1cccc(Cl)c1Oc1ccc(C(C)(C)O)cc1-c1cn(C)c(=O)c2[nH]c(C(=O)NC(C)(C)C(F)(F)F)cc12 [Example 41, 4-[2-(2-chloro-6-methylphenoxy)-5-(2-hydroxypropan-2-yl)phenyl]-6-methyl-7-oxo-N-(1,1,1-trifluoro-2-methylpropan-2-yl)-6,7-dihydro-1H-pyrrolo[2,3-c]pyridine-2-carboxamide]
3.3 nM	260 nM	Cc1cccc(Cl)c1Oc1ccc(C(C)(C)O)cc1-c1cn(C)c(=O)c2[nH]c(C(=O)NC(C)(C)C)cc12 [Example 31, N-tert-butyl-4-[2-(2-chloro-6-methylphenoxy)-5-(2-hydroxypropan-2-yl)phenyl]-6-methyl-7-oxo-6,7-dihydro-1H-pyrrolo[2,3-c]pyridine-2-carboxamide]
1.8 nM	44 nM	CCNC(=O)c1cc2c(-c3cc(C(O)(C(C)CC)C4CC4)cnc3Oc3c(C)cccc3C)cn(C)c(=O)c2[nH]1 (stereo not drawn) [Example 27, 4-[5-(1-cyclopropyl-1-hydroxy-2-methylbutyl)-2-(2,6-dimethylphenoxy)pyridin-3-yl]-N-ethyl-6-methyl-7-oxo-6,7-dihydro-1H-pyrrolo[2,3-c]pyridine-2-carboxamide]
1.7 nM	79 nM	CCNC(=O)c1cc2c(-c3cc(C(O)(C4CCCC4)C4CC4)cnc3Oc3c(C)cccc3C)cn(C)c(=O)c2[nH]1 (stereo not drawn) [Example 24, 4-{5-[cyclopentyl(cyclopropyl)hydroxymethyl]-2-(2,6-dimethylphenoxy)pyridin-3-yl}-N-ethyl-6-methyl-7-oxo-6,7-dihydro-1H-pyrrolo[2,3-c]pyridine-2-carboxamide]
1.5 nM	521 nM	CCNC(=O)c1cc2c(-c3cc(C(C)(O)CCc4ccccc4)cnc3Oc3c(C)cccc3C)cn(C)c(=O)c2[nH]1 (stereo not drawn) [Example 21, 4-[2-(2,6-dimethylphenoxy)-5-(2-hydroxy-4-phenylbutan-2-yl)pyridin-3-yl]-N-ethyl-6-methyl-7-oxo-6,7-dihydro-1H-pyrrolo[2,3-c]pyridine-2-carboxamide]
